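At the GI50, growth is halved. TGI: concentration producing complete growth inhibition.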
Experiments:
Assay in all cases: inhibition of tumour cell growth, NCI panel, 384-well format
A498 renal = test system: A498 renal
NCI/ADR-RES ovarian = test system: NCI/ADR-RES ovarian
UACC-257 melanoma = test system: UACC-257 melanoma
ACHN renal = test system: ACHN renal
OVCAR-3 ovarian = test system: OVCAR-3 ovarian
MCF7 breast = test system: MCF7 breast
SR leukemia = test system: SR leukemia
MDA-MB-468 breast = test system: MDA-MB-468 breast
SF-295 CNS = test system: SF-295 CNS
SK-MEL-28 melanoma = test system: SK-MEL-28 melanoma
BT-549 breast = test system: BT-549 breast
OVCAR-4 ovarian = test system: OVCAR-4 ovarian
M14 melanoma = test system: M14 melanoma
T-47D breast = test system: T-47D breast
NCI-H460 NSCLC = test system: NCI-H460 NSCLC
SF-539 CNS = test system: SF-539 CNS
HOP-62 NSCLC = test system: HOP-62 NSCLC
UO-31 renal = test system: UO-31 renal
RXF 393 renal = test system: RXF 393 renal
UACC-62 melanoma = test system: UACC-62 melanoma
A549 NSCLC = test system: A549 NSCLC
LOX IMVI melanoma = test system: LOX IMVI melanoma
SN12C renal = test system: SN12C renal
NCI-H226 lung = test system: NCI-H226 lung
786-0 renal = test system: 786-0 renal
NCI-H522 lung = test system: NCI-H522 lung
CCRF-CEM leukemia = test system: CCRF-CEM leukemia
RPMI-8226 leukemia = test system: RPMI-8226 leukemia
HOP-92 NSCLC = test system: HOP-92 NSCLC
K-562 leukemia = test system: K-562 leukemia
NCI-H23 lung = test system: NCI-H23 lung
DU-145 prostate = test system: DU-145 prostate
MDA-MB-231 breast = test system: MDA-MB-231 breast
COLO 205 colon = test system: COLO 205 colon
NCI-H322M lung = test system: NCI-H322M lung
SK-OV-3 ovarian = test system: SK-OV-3 ovarian
MOLT-4 leukemia = test system: MOLT-4 leukemia
TK-10 renal = test system: TK-10 renal
HCT-15 colon = test system: HCT-15 colon
U251 glioblastoma = test system: U251 glioblastoma
SK-MEL-2 melanoma = test system: SK-MEL-2 melanoma
HT29 colon = test system: HT29 colon
OVCAR-8 ovarian = test system: OVCAR-8 ovarian
MALME-3M melanoma = test system: MALME-3M melanoma
SK-MEL-5 melanoma = test system: SK-MEL-5 melanoma
SW-620 colon = test system: SW-620 colon
KM12 colon = test system: KM12 colon
OVCAR-5 ovarian = test system: OVCAR-5 ovarian
HL-60(TB) leukemia = test system: HL-60(TB) leukemia
MDA-MB-435 melanoma = test system: MDA-MB-435 melanoma
IGROV1 ovarian = test system: IGROV1 ovarian
PC-3 prostate = test system: PC-3 prostate
CAKI-1 renal = test system: CAKI-1 renal

## CN(C(=O)c1ccc(C(F)(F)F)cc1)c1ccc(Oc2ccc3c(c2)cc(C(=O)N2CCN(Cc4ccc(OC(F)F)cc4)CC2)n3C)nc1
A498 renal
  GI50: < 0.01 µM
  TGI: 0.0209 µM
NCI/ADR-RES ovarian
  GI50: < 0.01 µM
  TGI: 0.0671 µM
UACC-257 melanoma
  GI50: < 0.01 µM
  TGI: 2.84 µM
ACHN renal
  GI50: > 100 µM
  TGI: > 100 µM
OVCAR-3 ovarian
  GI50: 3.02 µM
  TGI: > 100 µM
MCF7 breast
  GI50: 0.136 µM
  TGI: > 100 µM
SR leukemia
  GI50: < 0.01 µM
  TGI: < 0.01 µM
MDA-MB-468 breast
  GI50: < 0.01 µM
  TGI: < 0.01 µM
SF-295 CNS
  GI50: 0.0107 µM
  TGI: > 100 µM
SK-MEL-28 melanoma
  GI50: > 100 µM
  TGI: > 100 µM
BT-549 breast
  GI50: 1.27 µM
  TGI: > 100 µM
OVCAR-4 ovarian
  GI50: < 0.01 µM
  TGI: > 100 µM
M14 melanoma
  GI50: 6.53 µM
  TGI: > 100 µM
T-47D breast
  GI50: < 0.01 µM
  TGI: 6.89 µM
NCI-H460 NSCLC
  GI50: < 0.01 µM
  TGI: < 0.01 µM
SF-539 CNS
  GI50: > 100 µM
  TGI: > 100 µM
HOP-62 NSCLC
  GI50: < 0.01 µM
  TGI: > 100 µM
UO-31 renal
  GI50: > 100 µM
  TGI: > 100 µM
RXF 393 renal
  GI50: < 0.01 µM
  TGI: < 0.01 µM
UACC-62 melanoma
  GI50: > 100 µM
  TGI: > 100 µM
A549 NSCLC
  GI50: < 0.01 µM
  TGI: > 100 µM
LOX IMVI melanoma
  GI50: < 0.01 µM
  TGI: > 100 µM
SN12C renal
  GI50: > 100 µM
  TGI: > 100 µM
NCI-H226 lung
  GI50: 0.431 µM
  TGI: > 100 µM
786-0 renal
  GI50: > 100 µM
  TGI: > 100 µM
NCI-H522 lung
  GI50: < 0.01 µM
  TGI: > 100 µM
CCRF-CEM leukemia
  GI50: < 0.01 µM
  TGI: 1.04 µM
RPMI-8226 leukemia
  GI50: < 0.01 µM
  TGI: < 0.01 µM
HOP-92 NSCLC
  GI50: 0.864 µM
  TGI: > 100 µM
K-562 leukemia
  GI50: < 0.01 µM
  TGI: > 100 µM
NCI-H23 lung
  GI50: < 0.01 µM
  TGI: < 0.01 µM
DU-145 prostate
  GI50: > 100 µM
  TGI: > 100 µM
MDA-MB-231 breast
  GI50: < 0.01 µM
  TGI: > 100 µM
COLO 205 colon
  GI50: > 100 µM
  TGI: > 100 µM
NCI-H322M lung
  GI50: < 0.01 µM
  TGI: > 100 µM
SK-OV-3 ovarian
  GI50: < 0.01 µM
  TGI: > 100 µM
MOLT-4 leukemia
  GI50: < 0.01 µM
  TGI: 1.42 µM
TK-10 renal
  GI50: 2.97 µM
  TGI: > 100 µM
HCT-15 colon
  GI50: 6.41 µM
  TGI: > 100 µM
U251 glioblastoma
  GI50: < 0.01 µM
  TGI: > 100 µM
SK-MEL-2 melanoma
  GI50: > 100 µM
  TGI: > 100 µM
HT29 colon
  GI50: > 100 µM
  TGI: > 100 µM
OVCAR-8 ovarian
  GI50: < 0.01 µM
  TGI: > 100 µM
MALME-3M melanoma
  GI50: > 100 µM
  TGI: > 100 µM
SK-MEL-5 melanoma
  GI50: < 0.01 µM
  TGI: 0.95 µM
SW-620 colon
  GI50: 8.11 µM
  TGI: > 100 µM
KM12 colon
  GI50: > 100 µM
  TGI: > 100 µM
OVCAR-5 ovarian
  GI50: > 100 µM
  TGI: > 100 µM
HL-60(TB) leukemia
  GI50: 1.01 µM
  TGI: 2.56 µM
MDA-MB-435 melanoma
  GI50: > 100 µM
  TGI: > 100 µM
IGROV1 ovarian
  GI50: 0.0201 µM
  TGI: > 100 µM
PC-3 prostate
  GI50: 3.48 µM
  TGI: > 100 µM
CAKI-1 renal
  GI50: > 100 µM
  TGI: > 100 µM
